Assay results: patent US20100215775A1, “USE OF C10-C14-ALKANEDIOLS IN THE PREPARATION OF A COMPOSITION FOR THE PROPHYLAXIS AND/OR TREATMENT OF MALASSEZIA-INDUCED DANDRUFF FORMATION” (SYMRISE GmbH & Co. KG, priority 2006, published 2010)
≈ marks a conversion by molar mass, not a printed value.

System: Malassezia furfur strain DSM6171
Assay: MIC value measurement by agar dilution method against Malassezia furfur
Type: cell-based, Malassezia furfur (synonym: Pityrosporum ovale)
Conditions: for MIC / factor by which activity is greater than that of 1,2-octanediol: Malassezia furfur; for MIC: DSM6171, 72 h; for factor by which activity is greater than that of 1,2-octanediol: ratio of MIC values versus 1,2-octanediol (MIC 225 ppm)
Experimental: The antimicrobial action of the alkane-1,2-diols against Malassezia furfur was determined by means of the agar dilution method in accordance with DIN 58 940/ICS and DIN 58 944/ICS. Malassezia furfur strain DSM6171 was used as the test organism. Petri dishes having a diameter of 9 cm and containing 8.7 ml of freshly prepared Mueller-Hinton agar (Merck, art. 1.05437) kept liquid at 50° C. and containing 3% Tween 80 (Merck, art. 8.2217) were used. In order to prepare the test concentrations, ethanolic stock solutions of the alkane-1,2-diol samples were diluted with 96% ethanol until the following final test concentrations of the alkane-1,2-diols in the Mueller-Hinton agar were present: 25,000 ppm, 12,500 ppm, 6300 ppm, 3600 ppm, 1800 ppm, 1100 ppm, 900 ppm, 450 ppm, 225 ppm, 112 ppm, 56 ppm, 28 ppm, 14 ppm, 7 ppm, 4 ppm. 2 agar plates were cast per test concentration and nutrient medium. After solidification and drying (about 1 hour at 37° C.), the test plates were inoculated punctually with in each case 1 μl of the Malassezia furfur (DSM 6171-2.8×10^7 KBE/ml) test organism suspensions. The inoculated plates were subsequently incubated for 72 hours at 30° C. and then evaluated. The lowest active ingredient concentration at which, macroscopically, no growth is present was regarded as the MIC (minimum inhibitory concentration). The MIC values of the alkane-1,2-diols listed in Table 1 were determined in accordance with the general test conditions.

[1] = agar dilution, Mueller-Hinton agar with 3% Tween 80, 72 hours at 30° C., lowest concentration with no macroscopic growth

Compound	MIC [1] [mg/L]	MIC value [1] [ppm]	factor by which activity is greater than that of 1,2-octanediol
CCCCCCCCCCC(O)CO (stereo not shown) [1,2-Dodecanediol]	–	–	about 16
CCCC(O)CO (stereo not shown) [1,2-Pentanediol]	25000 (≈ 240 mM)	–	–
CCCCCCCCC(O)CO (stereo not shown) [1,2-Decanediol]	–	–	about 8
CCCCCCCCCCCCCCCCC(O)CO (stereo not shown) [1,2-Octadecanediol]	> 1100	>1100	–

Second part, led by results:

MIC [1] [mg/L]	MIC value [1] [ppm]	Compound	factor by which activity is greater than that of 1,2-octanediol
225 (≈ 1.54 mM)	–	CCCCCCC(O)CO (stereo not shown) [1,2-Octanediol]	–
12500 (≈ 106 mM)	–	CCCCC(O)CO (stereo not shown) [1,2-Hexanediol]	–
< 7	–	CCCCCCCCCCCCC(O)CO (stereo not shown) [1,2-Tetradecanediol]	at least 32
1100 (≈ 4.26 mM)	–	CCCCCCCCCCCCCCC(O)CO (stereo not shown) [1,2-Hexadecanediol]	–
